Laboratory results reported in patent US20110183366A1, “Methods for achieving a protective ACE2 expression level to treat kidney disease and hypertension” (priority 2004, published 2011).
“Also recorded” adds a separate entry of the source.

How the values were obtained:
[1] = tested on: ACE and ACE2 in kidney cortex; test: 7-Mca-YVADAPK(Dnp) fluorescence assay in kidney cortex tissue extracts; assay type: biochemical, mouse; conditions: for fluorescence signal, % of control: EDTA 1 mmol/L, captopril and MLN-4760 alone or concomitantly
[2] = molecular target: T1, human recombinant (hr) ACE2 (Homo sapiens, UniProt Q9BYF1); test: Fluorescence quenching with 7-Mca-YVADAPK(Dnp) substrate on recombinant ACE2; assay type: biochemical; conditions: for quenching of fluorescence: hrACE2 20 nmol/L, inhibitor concentration up to 100 μmol/L
T1 construct: purchased R&D Systems
T1 sequence (Q9BYF1 18-805): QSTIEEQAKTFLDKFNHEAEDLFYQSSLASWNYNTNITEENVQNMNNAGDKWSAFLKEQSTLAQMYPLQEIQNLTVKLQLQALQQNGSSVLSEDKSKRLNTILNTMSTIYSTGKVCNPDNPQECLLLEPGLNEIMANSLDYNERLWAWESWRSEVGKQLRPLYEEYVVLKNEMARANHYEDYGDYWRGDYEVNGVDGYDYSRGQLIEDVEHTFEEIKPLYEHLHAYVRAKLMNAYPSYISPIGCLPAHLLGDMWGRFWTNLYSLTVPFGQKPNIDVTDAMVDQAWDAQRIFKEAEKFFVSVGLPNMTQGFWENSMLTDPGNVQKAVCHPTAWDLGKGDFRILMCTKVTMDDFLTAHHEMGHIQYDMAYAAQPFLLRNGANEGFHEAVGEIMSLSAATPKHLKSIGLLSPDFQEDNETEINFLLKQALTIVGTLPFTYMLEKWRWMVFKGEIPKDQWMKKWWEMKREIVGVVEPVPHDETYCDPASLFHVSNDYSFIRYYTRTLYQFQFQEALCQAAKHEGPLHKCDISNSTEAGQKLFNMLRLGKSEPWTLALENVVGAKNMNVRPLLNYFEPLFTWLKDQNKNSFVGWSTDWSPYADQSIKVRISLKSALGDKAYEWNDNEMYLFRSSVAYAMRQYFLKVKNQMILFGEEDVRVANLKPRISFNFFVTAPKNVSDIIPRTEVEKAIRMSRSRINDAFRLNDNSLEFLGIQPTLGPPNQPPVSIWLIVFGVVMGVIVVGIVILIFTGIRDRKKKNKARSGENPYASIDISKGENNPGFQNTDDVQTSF
Procedure: A fluorescent substrate of ACE and ACE2, i.e., 7-Mca-YVADAPK(Dnp) (R&D Systems), was used to concurrently assay ACE and ACE2 protein activity in tissue samples. Cleavage of this substrate by either enzyme removes the 2,4-dinitrophenyl moiety that quenches the fluorescence of the 7-methoxycoumarin moiety, thus resulting in increased fluorescence. To prevent undesirable hydrolysis of the substrate by a range of non-metalloprotease enzymes from mouse tissues, all tests were performed with the addition of an inhibitor cocktail (complete EDTA-free tablets, Roche).
MLN-4760 quenched the signal completely at 1-10 nmol/L, whereas a higher concentration (100 nmol/L) of DX600 was needed to achieve complete quenching of the signal. Therefore, further studies were done using MLN-4760. In tissue extracts, the concentrations of MLN-4760 required for fluorescence quenching were high and more variable.

podocytes in culture = conditions: cited from earlier work
db/m and db/db mice [3] = test: Glomerular fibronectin staining after chronic ACE2 inhibition; assay type: in vivo, mouse
Procedure: Pharmacological ACE2 inhibition in db/m and db/db mice. A specific ACE2 inhibitor, MLN-4760 (kind gift from Millennium Pharmaceuticals, Cambridge, Mass.) was injected to db/m and db/db mice subcutaneously (40-80 mg per kg of body weight (mg/kg/BW), every other day), starting at 8 weeks of age until the mice reached the age of 24 weeks. Vehicle control mice received injections of sterile PBS in the same volume.
Chronic ACE2 inhibition was also associated with an increased glomerular deposition of fibronectin, an extracellular matrix protein. In glomeruli from db/m mice receiving MLN-4760, fibronectin staining was increased as compared to their vehicle-treated db/m counterparts. In db/db mice, the MLN-4760 administration was also associated with an exaggeration of fibronectin staining. The number of glomeruli with strong fibronectin staining was used to semi-quantify the observed changes in kidneys from 12-16 animals in each group.

db/m and db/db mice [4] = test: Urinary albumin/creatinine ratio during chronic ACE2 inhibition in db/m and db/db mice; assay type: in vivo, mouse
Excerpt: Pharmacological ACE2 inhibition in db/m and db/db mice. […] Vehicle control mice received injections of sterile PBS in the same volume. […] Urinary albumin/creatinine ratio. ELISA kits for murine urinary albumin and creatinine companion kits from Exocell were used according to manufacturer's instructions to measure albumin/creatinine ratio in urine samples. Spot urine samples were collected at 8 weeks of age, before initiating the administration of the ACE2 inhibitor, and the AT1 blocker (at 8 weeks of age) and after 12 and 16 weeks of administration of these agents. Statistical analysis. Statistical analysis was performed using unpaired t-test or ANOVA when appropriate. Significance was defined as p<0.05. Data were expressed as mean±SE. The Effect of chronic ACE2 inhibition on albumin excretion and glomerular fibronectin deposition. To determine the extent to which chronic ACE2 inhibition results in increased albuminuria in the db/db mice, a specific ACE2 inhibitor, MLN-4760, was administered to the mice for 16 consecutive weeks starting at 8 weeks of age. At 8 weeks of age, before starting MLN or vehicle administration, db/db mice from both groups had virtually indistinguishable levels of urinary albumin excretion (UAE; 69.5±18 vs. 81±15 μg albumin/mg creatinine, respectively). […] In db/m mice treated with MLN-4760, UAE was higher than in the vehicle-treated db/m controls, but the difference was small and not statistically significant (55±24 vs. 32±3, μg/mg, respectively, p=NS).

## O=C(O)CN(CCN(CC(=O)O)CC(=O)O)CC(=O)O [EDTA]
[1]
  fluorescence signal, % of control: about 16 % of control

## C[C@H](CS)C(=O)N1CCC[C@H]1C(=O)O [captopril]
[2]
  quenching of fluorescence: failed to quench fluorescence
[1]
  fluorescence signal, % of control: 24.9±1.1 % of control
Podocytes in culture
  effect on stretch-induced increase in ANG II generation: did not abrogate the stretch-induced increase in ANG II generation

## CC(C)C[C@H](N[C@@H](Cc1cncn1Cc1cc(Cl)cc(Cl)c1)C(=O)O)C(=O)O [MLN-4760, (S,S)-2-{1-carboxy-2-[3-(3,5-dichlorobenzyl)-3H-imidazol4-yl]-ethylamino}-4-methylpentanoic acid]
[2]; hrACE2
  concentration for complete quenching of the signal: 1 to 10 nmol/L
[1]
  fluorescence signal, % of control: 46.4±0.7 % of control
db/m and db/db mice [3]; db/db mice treated with MLN-4760, vehicle 28.5%±6.4
  percentage of glomeruli with strong fibronectin staining: 54.8%±4.6
db/m and db/db mice [3]; db/m mice receiving MLN-4760, vehicle 17.3%±5.2
  percentage of glomeruli with strong fibronectin staining: 41.1%±4.1
db/m and db/db mice [4]; db/db mice, 16 weeks of treatment, age 24 weeks
  increase in UAE in comparison to vehicle db/db controls: about three-fold
db/m and db/db mice [4]; db/db mice, MLN-4760 s.c. 40-80 mg/kg every other day, after 12 weeks of treatment, vehicle 124±23
  albumin/creatinine ratio: 474 ± 166 µg/mg
db/m and db/db mice [4]; db/db mice, after 16 weeks of treatment, age 24 weeks, vehicle 247±53.9
  urinary albumin excretion (UAE): 743 ± 200 µg/mg
db/m and db/db mice [4]; db/m mice treated with MLN-4760, vehicle 32±3, p=NS
  urinary albumin excretion (UAE): 55 ± 24 µg/mg

## O=C(O)CC(Cc1ccccc1)C(=O)O (stereo not drawn) [benzyl succinate]
[2]
  quenching of fluorescence: failed to quench fluorescence
[1]; benzyl succinate 100 μmol/L
  reduction of fluorescence signal: did not reduce significantly the fluorescence signal

## CCCc1nc2c(C)cc(-c3nc4ccccc4n3C)cc2n1Cc1ccc(-c2ccccc2C(=O)O)cc1 [telmisartan]
db/m and db/db mice [4]; db/db mice, telmisartan 2 mg/kg/day in drinking water together with s.c. MLN-4760
  effect on the increase in urinary albumin associated with the ACE2 inhibitor: prevented the increase in urinary albumin excretion; also recorded: completely prevented the increase in urinary albumin
